The structures appear in SMILES notation.

In one data set the test system is Aphis craccivora. As to the kind of experiment: Action against Aphis craccivora (sprayed pea seedlings). In kind it is in vivo. To be noted: 400 ppm spray on infested pea seedlings, 20° C., evaluation 3 to 7 days later, read-out: percentage reduction in the population (% activity). How it is done:
Action against Aphis craccivora Pea seedlings are infested with Aphis craccivora, then sprayed with a spray mixture comprising 400 ppm of test compound and then incubated at 20° C. Evaluation is made 3 to 7 days later. The percentage reduction in the population (% activity) is determined by comparing the number of dead Aphis craccivora individuals on the treated plants with that on untreated plants.

The subject of a further data set is Nilaparvata lugens. As to the kind of experiment: Action against Nilaparvata lugens (sprayed rice plants). In kind it is in vivo. Conditions: 504 h, 400 ppm spray on rice plants, larvae in the 2nd and 3rd stages, evaluation 21 days later, read-out: percentage reduction in the population (% activity). How it is done: Action against Nilaparvata lugens Rice plants are sprayed with an aqueous emulsion comprising 400 ppm of test compound. After the spray coating has dried, the rice plants are populated with Nilaparvata lugens larvae in the 2nd and 3rd stages. Evaluation is made 21 days later. The percentage reduction in the population (% activity) is determined by comparing the number of surviving plant hoppers on the treated plants with that on untreated plants.

Data set [1] deals with Myzus persicae. The data set can be described thus: Systemic action against Myzus persicae (roots in spray mixture). To be noted: systemic: pea seedling roots in 400 ppm spray mixture, 20° C., evaluation 3 to 7 days later, read-out: percentage reduction in the population (% activity). In kind it is in vivo. How it is done:
Systemic action against Myzus persicae Pea seedlings are infested with Myzus persicae, then placed with their roots in a spray mixture comprising 400 ppm of test compound and then incubated at 20° C. Evaluation is made 3 to 7 days later. The percentage reduction in the population (% activity) is determined by comparing the number of dead aphids on the treated plants with that on untreated plants.

In the next data set the test system is Anthonomus grandis. The data set can be described thus: Action against Anthonomus grandis (sprayed cotton plants). Conditions: 72 h, 400 ppm spray on young cotton plants, 10 adults, evaluation 3 days later, read-out: percentage reduction in the population and percentage reduction in feeding damage (% activity). In kind it is in vivo. How it is done: Action against Anthonomus […] Young cotton plants are sprayed with an aqueous emulsion comprising 400 ppm of test compound. After the spray coating has dried, the plants are populated with 10 Anthonomus grandis adults and placed in a plastics container. Evaluation is made 3 days later. The percentage reduction in the population and the percentage reduction in feeding damage (% activity) are determined by comparing the number of dead beetles and the feeding damage on the treated plants with that on untreated plants.

The next data set relates to Ctenocephalides felis. As to the kind of experiment: Systemic action against Ctenocephalides felis (membrane blood feeding). Format: in vivo. Conditions: 50 ppm in blood, 37°, 20 adult fleas, evaluation 24 and 48 hours, read-out: percentage reduction in the population (% activity). How it is done: Systemic action against Ctenocephalides felis 20 adult fleas of the Ctenocephalides felis species are placed in a flat round cage closed on both sides with gauze. A vessel sealed on the underside with a parafilm membrane is placed on the cage. The vessel contains blood comprising 50 ppm of test compound and maintained at a constant 37°. The fleas ingest the blood through the membrane. Evaluation is made 24 and 48 hours after the start of the test. The percentage reduction in the population (% activity) is determined by comparing the number of dead Ctenocephalides felis fleas when treated blood is used with that when untreated blood is used. The blood is replaced by fresh treated blood 24 hours after treatment.

In another data set the test system is Plutella xylostella. The data set can be described thus: Action against Plutella xylostella caterpillars. In kind it is in vivo. To be noted: 72 h, 400 ppm spray on young cabbage plants, 10 caterpillars in the third stage, evaluation 3 days later, read-out: percentage reduction in the population and percentage reduction in feeding damage (% activity). The method, then:
Action against Plutella xylostella caterpillars Young cabbage plants are sprayed with an aqueous emulsion comprising 400 ppm of test compound. After the spray coating has dried, the cabbage plants are populated with 10 Plutella xylostella caterpillars in the third stage and placed in a plastics container. Evaluation is made 3 days later. The percentage reduction in the population and the percentage reduction in feeding damage (% activity) are determined by comparing the number of dead caterpillars and the feeding damage on the treated plants with that on untreated plants.

In data set [2] the test system is Myzus persicae. The data set can be described thus: Action against Myzus persicae (sprayed pea seedlings). Format: in vivo. Conditions: 400 ppm spray on infested pea seedlings, 20°, evaluation 3 to 7 days later, read-out: percentage reduction in the population (% activity). How it is done: Action against Myzus persicae Pea seedlings are infested with Myzus persicae, then sprayed with a spray mixture comprising 400 ppm of test compound and then incubated at 20°. Evaluation is made 3 to 7 days later. The percentage reduction in the population (% activity) is determined by comparing the number of dead aphids on the treated plants with that on untreated plants.

Another data set has as its system Heliothis virescens. As to the kind of experiment: Action against Heliothis virescens (sprayed soybean plants). In kind it is in vivo. To be noted: 144 h, 400 ppm spray on young soybean plants, 10 caterpillars in the first stage, evaluation 6 days later, read-out: percentage reduction in the population and percentage reduction in feeding damage (% activity). How it is done:
Action against Heliothis virescens Young soybean plants are sprayed with an aqueous emulsion comprising 400 ppm of test compound. After the spray coating has dried, the plants are populated with 10 Heliothis virescens caterpillars in the first stage and placed in a plastics container. Evaluation is made 6 days later. The percentage reduction in the population and the percentage reduction in feeding damage (% activity) are determined by comparing the number of dead caterpillars and the feeding damage on the treated plants with that on untreated plants.

Another data set deals with Nephotettix cincticeps. The data set can be described thus: Action against Nephotettix cincticeps (sprayed rice plants). Format: in vivo. Conditions: 504 h, 400 ppm spray on rice plants, larvae in the 2nd and 3rd stages, evaluation 21 days later, read-out: percentage reduction in the population (% activity). How it is done: Action against Nephotettix cincticeps Rice plants are sprayed with an aqueous emulsion comprising 400 ppm of test compound. After the spray coating has dried, the plants are populated with Nephotettix cincticeps larvae in the 2nd and 3rd stages. Evaluation is made 21 days later. The percentage reduction in the population (% activity) is determined by comparing the number of surviving leaf hoppers on the treated plants with that on untreated plants.

The next data set relates to Diabrotica balteata. As to the kind of experiment: Action against Diabrotica balteata (sprayed maize seedlings). Format: in vivo. To be noted: 144 h, 400 ppm spray on maize seedlings, 10 larvae in the second stage, evaluation 6 days later, read-out: percentage reduction in the population (% activity). The method, then: Action against Diabrotica balteata Maize seedlings are sprayed with an aqueous emulsion comprising 400 ppm of test compound. After the spray coating has dried, the seedlings are populated with 10 Diabrotica balteata larvae in the second stage and placed in a plastics container. Evaluation is made 6 days later. The percentage reduction in the population (% activity) is determined by comparing the number of dead larvae on the treated plants with that on untreated plants.

In the case of `O=[N+]([O-])/C=C1\NCCC1Cc1ccc(Cl)nc1` (stereo not shown) [Compound 5.3, 3-(2-Chloropyrid-5-yl-methyl)2-nitromethylidene-pyrrolidine], the melting point – broadly, the temperature of the solid-liquid transition – lay within 159 to 161 °C. Besides, in the data set on Aphis craccivora, the inhibition at 400 ppm is over 80%. In addition, the inhibition at 400 ppm in the data set with Nilaparvata lugens is over 80%. Besides, the inhibition at 400 ppm in the data set with Myzus persicae [1] is over 80%. In addition, the inhibition at 400 ppm in the data set with Anthonomus grandis was over 80%. Further, the inhibition at 50 ppm with Ctenocephalides felis was over 80%. For the same compound, the inhibition at 400 ppm in the data set on Plutella xylostella is over 80%. Further, in the data set with Myzus persicae [2], the inhibition at 400 ppm is over 80%. Moreover, the inhibition at 400 ppm with Heliothis virescens was over 80%. In addition, the inhibition at 400 ppm in the data set on Nephotettix cincticeps is over 80%.
Turning to `CN1CCC(Cc2ccc(Cl)nc2)/C1=C/[N+](=O)[O-]` (stereo not shown) [Compound 5.4, 3-(2-Chloropyrid-5-yl-methyl)-1methyl-2-nitromethylidene-pyrrolidine], the inhibition at 400 ppm in the data set with Nilaparvata lugens, in the data set with Myzus persicae [1], in the data set with Anthonomus grandis, with Myzus persicae [2] and in the data set on Nephotettix cincticeps was over 80% each time.
For `CCN1CCC(Cc2ccc(Cl)nc2)/C1=C/[N+](=O)[O-]` (stereo not shown) [Compound 5.5, 3-(2-Chloropyrid-5-yl-methyl)-1-ethyl-2-nitromethylidene-pyrrolidine], the inhibition at 400 ppm in the data set on Nephotettix cincticeps is over 80%.
As to `O=[N+]([O-])C=C1NCCCC1Cc1ccc(Cl)nc1` (stereo not shown) [Compound 5.16, 3-(2-chloropyrid-5-yl-methyl)-2-nitromethylidene-piperidine], the melting point is 179 to 181 °C. In addition, the inhibition at 400 ppm in the data set with Diabrotica balteata was over 80%. Moreover, the inhibition at 400 ppm in the data set with Myzus persicae [2] was over 80%.

The values are drawn from patent publication US6353001B1, “2-nitromethylidene/2-cyanimino/2-nitro-imino-pyrrolidines and piperidines, intermediates, and their use as pesticides” (Syngenta Investment Corporation, priority 1993, dated 2002).
